According to patent US4749703A, “Calcium antagonist piperazine derivatives, and compositions therefor” (Dainippon Pharmaceutical Co., Ltd., priority 1984, dated 1988):
Where a name gives a salt, the structure may show the parent alone.

Tests used:
[1] = system: spontaneously hypertensive rats (SHR); test: Antihypertensive activity in spontaneously hypertensive rats (SHR); assay type: in vivo, male SHR (Okamoto and Aoki strain) rats; conditions: for Peak time (time of maximum hypotensive effect): p.o.; for duration of antihypertensive activity (in words): compared with commercially available calcium antagonists
Protocol: The animals used were male SHR [Okamoto and Aoki strain; cf. Jap. Circul. […] Proc. Soc. […] The other end of the cannula was exposed through the skin on the back of the neck and fixed. After 1 to 4 days, the aortic cannula was connected to a pressure transducer (produced by Nihon Koden Co., Ltd., Japan; Model MP-4T), and conscious blood pressure was measured by direct method. On the day of the experiment, the blood pressure was measured for one hour prior to dosing. The test compound, suspended in 0.5% aqueous tragacanth solution, was administered orally at a volume of 3.0 ml/kg and the blood pressure was measured continuously for 5 hours.
The changes of blood pressure are expressed by the mean pressure calculated from the values of systolic and diastolic pressure.

[2] = system: vasopressin-induced ST depression; test: Preventive effect on vasopressin-induced ST depression (experimental model of angina pectoris); assay type: in vivo, Male Donryu strain rats; design: key to Preventive effect on ST depression, 7 hours / Preventive effect on ST depression, 1 hour / Preventive effect on ST depression, 5 hours / Preventive effect on ST depression, 3 hours: +: Significantly different from vehicle control (P < 0.05); -: No significant difference; conditions: for Preventive effect on ST depression, 1 hour: 1 hour following administration; for Preventive effect on ST depression, 3 hours: 3 hours following administration; for Preventive effect on ST depression, 5 hours: 5 hours following administration; for Preventive effect on ST depression, 7 hours: 7 hours following administration
Protocol: (1) Preventive effect on vasopressin-induced ST depression (effect in experimental model of angina pectoris)
The test was carried out according to the method of Hatano et al. [cf. Pharmacometrics, 19, 311-317 (1980)].
Male Donryu strain rats, weighing 130-180 g, were anesthetized with 60 mg/kg (i.p.) of sodium pentobarbital. Lead II electrocardiogram was recorded. The ST depression produced with 0.2 IU/kg (i.v.) of vasopressin was recorded at intervals of a given period for 5 minutes after the administration of vasopressin. The test compound, suspended in 0.5% aqueous tragacanth solution, was administered orally 1, 3, 5 and 7 hours before the administration of vasopressin. The amplitude of ST depression was measured by means of the computer, and the data were analyzed statistically by two-dimensional analysis between the control group and the treated group to evaluate the effect of the test compound. Each group of 5 rats was used for each dose of the test compound.

[3] = system: methacholine-induced ST elevation; test: Preventive effect on methacholine-induced ST elevation (experimental model of variant angina); assay type: in vivo, Male SD strain rats; conditions: i.v.; for ST elevation, administn. of M (8 μg) after administn. of test compd. (at peak time): ± S.E.; for preventive effect on the ST elevation (in words): compared with diltiazem hydrochloride
Protocol: (2) Preventive effect on methacholine-induced ST elevation (effect in experimental model of variant angina)
The test was carried out according to the method of Sakai et al. [cf. J. Pharmacol. Methods, 5, 325-336 (1981)].
Male SD strain rats, weighing about 500 g, were anesthetized with 60 mg/kg (i.p.) of sodium pentobarbital. Lead II electrocardiogram was recorded. The ST elevation was produced with 8.0 μg of metacholine given into the coronary […] through the cannula inserted from the right carotid artery. The test compound, dissolved in 5% ethanol-physiological saline solution, was administered intravenously. The amplitude of ST elevation was measured by means of the computer 0.5, 5 and 10 minutes after the administration of the test compound and afterward at intervals of 10-minute. The effect of the test compound was evaluated by comparing the amplitude of ST elevation after administration of the test compound with that before the administration. Each group of 5 rats was used for each dose of the test compound.
The abbreviation M in the table represents metacholine.

[4] = 0.3 mg/kg, * P < 0.05, ** P < 0.01

SMILES: O=C(CCCN1CCN(c2ccc(F)cc2)CC1)NC1c2ccccc2C[S+]([O-])c2ccccc21 (single isomer, unassigned) [Example 136, 11-[4-[4-(4-fluorophenyl)-1-piperazinyl]butyrylamino]-6,11-dihydrodibenzo[b,e]thiepin-5-oxide-A]
- Peak time (time of maximum hypotensive effect) ([1]; 30 mg/kg): 5 h
- maximum hypotensive effect (decrease compared with the initial blood pressure) ([1]; oral, 30 mg/kg): 12-14%
- time of maximum hypotensive effect ([1]; oral, 30 mg/kg): 4 to 5 h

SMILES: Cc1ccc2c(c1)C(NC(=O)CCCN1CCN(c3ccc(F)cc3)CC1)c1ccccc1CS2 (centres unmarked) [2(1), 11-[4-[4-(4-fluorophenyl)-1-piperazinyl]butyrylamino]-2-methyl-6,11-dihydrodibenzo[b,e]thiepin]
- duration of antihypertensive activity (in words) [1]: longer duration of antihypertensive activity than that of the commercially available calcium antagonists

SMILES: Cc1ccc2c(c1)C(NC(=O)CCCN1CCN(c3ccc(F)cc3)CC1)c1ccccc1CS2 (centres unmarked) [2(3), 11-[4-[4-(4-fluorophenyl)-1-piperazinyl]butyrylamino]-2-methyl-6,11-dihydrodibenzo[b,e]thiepin]
- Preventive effect on ST depression, 1 hour ([2]; 3 mg/kg p.o.): -
- Preventive effect on ST depression, 3 hours ([2]; 3 mg/kg p.o.): -
- Preventive effect on ST depression, 5 hours ([2]; 3 mg/kg p.o.): -
- Preventive effect on ST depression, 7 hours ([2]; 3 mg/kg p.o.): -
- Preventive effect on ST depression, 1 hour ([2]; 10 mg/kg p.o.): +
- Preventive effect on ST depression, 3 hours ([2]; 10 mg/kg p.o.): +
- Preventive effect on ST depression, 5 hours ([2]; 10 mg/kg p.o.): +
- Preventive effect on ST depression, 7 hours ([2]; 10 mg/kg p.o.): -
- Preventive effect on ST depression, 1 hour ([2]; 30 mg/kg p.o.): +
- Preventive effect on ST depression, 7 hours ([2]; 30 mg/kg p.o.): +
- preventive effect on the ST depression (in words) ([2]; p.o., compared with diltiazem hydrochloride): more prolonged preventive effect on the ST depression than diltiazem hydrochloride
- peak time (preventive effect on ST elevation) ([3]; 0.1 mg/kg): 5 min
- ST elevation, administn. of M (8 μg) after administn. of test compd. (at peak time) ([3]; 0.1 mg/kg, * P < 0.05): +0.19 ± 0.05 ΔmV
- peak time (preventive effect on ST elevation) ([3]; 0.3 mg/kg): 0.5 min
- ST elevation, administn. of M (8 μg) after administn. of test compd. (at peak time) [3, 4]: +0.13 ± 0.02 ΔmV
- preventive effect on the ST elevation (in words) [3]: preventive effect on the ST elevation comparable to that of diltiazem hydrochloride
- Peak time (time of maximum hypotensive effect) ([1]; 30 mg/kg): 4 h
- maximum hypotensive effect (decrease compared with the initial blood pressure) ([1]; oral, 30 mg/kg): 12-14%
- time of maximum hypotensive effect ([1]; oral, 30 mg/kg): 4 to 5 h

SMILES: O=C(CCCN1CCN(c2ccccc2)CC1)NC1c2ccccc2CSc2ccccc21 (centres unmarked) [6(1), 11-[4-(4-phenyl-1-piperazinyl)butyrylamino]-6,11-dihydrodibenzo[b,e]thiepin]
- peak time (preventive effect on ST elevation) ([3]; 0.1 mg/kg): 0.5 min
- ST elevation, administn. of M (8 μg) after administn. of test compd. (at peak time) ([3]; 0.1 mg/kg, * P < 0.05): +0.15 ± 0.05 ΔmV
- peak time (preventive effect on ST elevation) ([3]; 0.3 mg/kg): 5 min
- ST elevation, administn. of M (8 μg) after administn. of test compd. (at peak time) [3, 4]: +0.07 ± 0.01 ΔmV
- preventive effect on the ST elevation (in words) [3]: preventive effect on the ST elevation comparable to that of diltiazem hydrochloride

SMILES: COc1ccc([C@@H]2Sc3ccccc3N(CCN(C)C)C(=O)[C@@H]2OC(C)=O)cc1 [Diltiazem hydrochloride, reference compound]
- Preventive effect on ST depression, 1 hour ([2]; 3 mg/kg p.o.): -
- Preventive effect on ST depression, 3 hours ([2]; 3 mg/kg p.o.): -
- Preventive effect on ST depression, 1 hour ([2]; 10 mg/kg p.o.): +
- Preventive effect on ST depression, 3 hours ([2]; 10 mg/kg p.o.): +
- Preventive effect on ST depression, 5 hours ([2]; 10 mg/kg p.o.): -
- Preventive effect on ST depression, 1 hour ([2]; 30 mg/kg p.o.): +
- Preventive effect on ST depression, 5 hours ([2]; 30 mg/kg p.o.): +
- Preventive effect on ST depression, 7 hours ([2]; 30 mg/kg p.o.): -
- peak time (preventive effect on ST elevation) ([3]; 0.1 mg/kg): 10 min
- ST elevation, administn. of M (8 μg) after administn. of test compd. (at peak time) ([3]; 0.1 mg/kg, * P < 0.05): +0.15 ± 0.03 ΔmV
- peak time (preventive effect on ST elevation) ([3]; 0.3 mg/kg): 10 min
- ST elevation, administn. of M (8 μg) after administn. of test compd. (at peak time) [3, 4]: +0.06 ± 0.02 ΔmV
- peak time (preventive effect on ST elevation) ([3]; 1.0 mg/kg): 5 min
- ST elevation, administn. of M (8 μg) after administn. of test compd. (at peak time) ([3]; 1.0 mg/kg, ** P < 0.01): +0.09 ± 0.02 ΔmV
- Peak time (time of maximum hypotensive effect) ([1]; 30 mg/kg): 0.333 h
- Peak time (time of maximum hypotensive effect) ([1]; 50 mg/kg): 0.333 h
- decrease compared with the initial blood pressure at 5 hours after dosing ([1]; oral): 3%
- reduction of blood pressure (in words) ([1]; oral, 30 mg/kg): did not reduce significantly blood pressures
- maximum effect (decrease compared with the initial blood pressure) ([1]; oral, 50 mg/kg): 13%
- time of maximum effect ([1]; oral, 50 mg/kg): 20 min

SMILES: O=C(CCCN1CCN(c2ccc(F)cc2)CC1)NC1c2ccccc2CSc2ccccc21 (centres unmarked) [Example 1(1), 11-[4-[4-(4-fluorophenyl)-1-piperazinyl]butyrylamino]-6,11-dihydrodibenzo[b,e]thiepin]
- duration of antihypertensive activity (in words) [1]: longer duration of antihypertensive activity than that of the commercially available calcium antagonists

SMILES: O=C(CCCN1CCN(c2ccc(F)cc2)CC1)NC1c2ccccc2CSc2cc(F)ccc21 (centres unmarked) [Example 42, 3-fluoro-11-[4[4-(4-fluorophenyl)-1-piperazinyl]butyrylamino]-6,11-dihydrodibenzo[b,e]thiepin]
- Peak time (time of maximum hypotensive effect) ([1]; 30 mg/kg): 4 h
- maximum hypotensive effect (decrease compared with the initial blood pressure) ([1]; oral, 30 mg/kg): 12-14%
- time of maximum hypotensive effect ([1]; oral, 30 mg/kg): 4 to 5 h

SMILES: O=C(CCCN1CCN(c2ccc(F)cc2)CC1)NC1c2ccccc2CS(=O)(=O)c2ccccc21 (centres unmarked) [Example 138, 11-[4-[4-(4-fluorophenyl)-1-piperazinyl]butyrylamino]-6,11-dihydrodibenzo[b,e]thiepin-5,5-dioxide]
- Peak time (time of maximum hypotensive effect) ([1]; 30 mg/kg): 5 h
- maximum hypotensive effect (decrease compared with the initial blood pressure) ([1]; oral, 30 mg/kg): 12-14%
- time of maximum hypotensive effect ([1]; oral, 30 mg/kg): 4 to 5 h

SMILES: COC(=O)C1=C(C)NC(C)=C(C(=O)OC)C1c1ccccc1[N+](=O)[O-] [Nifedipine, reference compound]
- Preventive effect on ST depression, 1 hour ([2]; 0.01 mg/kg p.o.): -
- Preventive effect on ST depression, 3 hours ([2]; 0.01 mg/kg p.o.): -
- Preventive effect on ST depression, 1 hour ([2]; 0.1 mg/kg p.o.): +
- Preventive effect on ST depression, 3 hours ([2]; 0.1 mg/kg p.o.): -
- Preventive effect on ST depression, 5 hours ([2]; 0.1 mg/kg p.o.): -
- peak time (preventive effect on ST elevation) ([3]; 0.03 mg/kg): 10 min
- ST elevation, administn. of M (8 μg) after administn. of test compd. (at peak time) ([3]; 0.03 mg/kg): +0.17 ± 0.02 ΔmV
- peak time (preventive effect on ST elevation) ([3]; 0.1 mg/kg): 20 min
- ST elevation, administn. of M (8 μg) after administn. of test compd. (at peak time) ([3]; 0.1 mg/kg, * P < 0.05): +0.08 ± 0.02 ΔmV
- Peak time (time of maximum hypotensive effect) ([1]; 3 mg/kg): 0.5 h
- decrease compared with the initial blood pressure at 5 hours after dosing ([1]; oral): 7%
- maximum hypotensive effect (decrease compared with the initial blood pressure) ([1]; oral, 3 mg/kg): 17%
- time of maximum hypotensive effect ([1]; oral, 3 mg/kg): 0.5 h
